# Source: PubChem BioAssay AID2060896 (Molecular Pharmacology Branch, DTP, NCI, 2025)
# Tested on: 941728-121-R-J1-PDC complex spheroid viability
# Assay: Anticancer human tumor 941728-121-R-J1-PDC patient-derived lung adenocarcinoma cell line growth inhibition [RAS]
# Details: for IC50: curve of first compound; for viability, T/C: stronger effect = lower value
# Method in brief: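 Tumour cells grown as complex spheroids with HUVEC endothelial cells and mesenchymal stem cells, treated with RAS pathway inhibitor combinations. Each agent spans half-log steps from near clinical Cmax, or 10 microM where Cmax is unknown.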
# 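Note: spheroids exposed to compounds for 7 days before readout.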
# 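Throughout, for viability, T/C: 100% = DMSO vehicle control viability.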
smiles,measurement,setting,value
CC(Nc1ccc2c(c1)OCCn1cc(N3C(=O)OCC3C(F)F)nc1-2)C(N)=O (configuration not stated) + C=CC(=O)N1CCN(c2nc(OCC3CCCN3C)nc3c(F)c(-c4nc(N)cc(C)c4C(F)(F)F)c(Cl)cc23)C(C)C1,IC50,second compound 0.00316 µM,< 31.6 nM
same,IC50,second compound 0.01 µM,< 31.6 nM
same,IC50,second compound 0.0316 µM,< 31.6 nM
same,IC50,second compound 0.1 µM,< 31.6 nM
same,IC50,second compound 0.316 µM,< 31.6 nM
same,IC50,second compound 1 µM,< 31.6 nM
same,"viability, T/C","second compound 0.00316 µM, first compound 0.0316 µM",16.6%
same,"viability, T/C","second compound 0.00316 µM, first compound 0.1 µM",15.2%
same,"viability, T/C","second compound 0.00316 µM, first compound 0.316 µM",15.4%
same,"viability, T/C","second compound 0.00316 µM, first compound 1 µM",15.4%
same,"viability, T/C","second compound 0.00316 µM, first compound 3.16 µM",12.8%
same,"viability, T/C","second compound 0.00316 µM, first compound 10 µM",12%
same,"viability, T/C","second compound 0.01 µM, first compound 0.0316 µM",17.7%
same,"viability, T/C","second compound 0.01 µM, first compound 0.1 µM",14.9%
same,"viability, T/C","second compound 0.01 µM, first compound 0.316 µM",15.2%
same,"viability, T/C","second compound 0.01 µM, first compound 1 µM",12.9%
same,"viability, T/C","second compound 0.01 µM, first compound 3.16 µM",12.2%
same,"viability, T/C","second compound 0.01 µM, first compound 10 µM",10.5%
same,"viability, T/C","second compound 0.0316 µM, first compound 0.0316 µM",19.2%
same,"viability, T/C","second compound 0.0316 µM, first compound 0.1 µM",14.6%
same,"viability, T/C","second compound 0.0316 µM, first compound 0.316 µM",13.4%
same,"viability, T/C","second compound 0.0316 µM, first compound 1 µM",12.9%
same,"viability, T/C","second compound 0.0316 µM, first compound 3.16 µM",10.7%
same,"viability, T/C","second compound 0.0316 µM, first compound 10 µM",10.8%
same,"viability, T/C","second compound 0.1 µM, first compound 0.0316 µM",18.3%
same,"viability, T/C","second compound 0.1 µM, first compound 0.1 µM",15.3%
same,"viability, T/C","second compound 0.1 µM, first compound 0.316 µM",12.8%
same,"viability, T/C","second compound 0.1 µM, first compound 1 µM",13.8%
same,"viability, T/C","second compound 0.1 µM, first compound 3.16 µM",11.5%
same,"viability, T/C","second compound 0.1 µM, first compound 10 µM",10.8%
same,"viability, T/C","second compound 0.316 µM, first compound 0.0316 µM",17.5%
same,"viability, T/C","second compound 0.316 µM, first compound 0.1 µM",15.3%
same,"viability, T/C","second compound 0.316 µM, first compound 0.316 µM",13.4%
same,"viability, T/C","second compound 0.316 µM, first compound 1 µM",15.1%
same,"viability, T/C","second compound 0.316 µM, first compound 3.16 µM",13.6%
same,"viability, T/C","second compound 0.316 µM, first compound 10 µM",11.6%
same,"viability, T/C","second compound 1 µM, first compound 0.0316 µM",14.9%
same,"viability, T/C","second compound 1 µM, first compound 0.1 µM",15.7%
same,"viability, T/C","second compound 1 µM, first compound 0.316 µM",14.3%
same,"viability, T/C","second compound 1 µM, first compound 1 µM",13.4%
same,"viability, T/C","second compound 1 µM, first compound 3.16 µM",12.6%
same,"viability, T/C","second compound 1 µM, first compound 10 µM",11.8%
